Reference: publication PMC2424174, “Suppression of Tumor Growth and Angiogenesis by a Specific Antagonist of the Cell-Surface Expressed Nucleolin” (PLoS ONE, 2008)

What was measured:
[1] = test system: chick embryo chorioallantoic membrane; assay: Chick embryo chorioallantoic membrane (CAM) angiogenesis assay; assay type: in vivo, chicken; details: 48 h; for relative percent inhibition of angiogenesis: total vessel length vs control, P<0.001, 15–20 eggs
Description: Figure 7 Inhibition of in vivo angiogenesis by HB-19 in chick embryo chorioallantoic membrane (CAM) assay. Macroscopic observation of the angiogenic response induced by gelatin sponges (1 cm^2), soaked with 40 µl of PBS (Control) or 40 µl PBS containing HB-19 at concentrations of 10, 20 and 50 µM (corresponding to 0.4, 0.8 and 2 nmols of HB-19, respectively). After 48 h, CAMs were fixed and excised from the eggs . Photographs were taken and the total length of the vessels was measured using the Image PC image-analysis software (Scion Corporation, USA)[48]. Each sample was tested three times using 15–20 eggs for each data point. The relative percent inhibition (P<0.001) of angiogenesis compared to the control was 27, 36 and 51% in the presence of 0.4, 0.8 and 2 nmols of HB-19, respectively.
Leghorn fertilized eggs (Pindos, Greece) were incubated for 4 days at 37°C. A window was then opened on the eggshell, exposing the CAM. The window was covered with sterile tape, and the eggs were returned to the incubator. On day 9 of embryo development, 20 µl of distilled water alone as a control or containing HB-19 was applied on a 1-cm2 area of the CAM inside a silicon ring. After 48 hours of incubation at 37°C, CAMs were fixed in situ with saline-buffered formalin, excised from the eggs, placed on slides, and left to dry in air. Photographs were taken and the total length of the vessels was measured as described.

[2] = test system: HUVECs; assay: FACScan competition of HB-19/Btn binding to HUVECs; set-up: species or system human; details: 1 µM HB-19/Btn, 4 °C, competitor 50 µM
Description: Figure 3 Specific binding and entry of HB-19 in endothelial cells. (A) HB-19/Btn forms a stable complex with nucleolin expressed on the surface of HUVECs. Cells were incubated (45 min, 20°C) with 0, 1, 2, 4, 8 and 12 µM of HB-19/Btn before preparation of surface/cytoplasmic and nuclear extracts and recovery of surface nucleolin from the surface/cytoplasmic extracts as in Figure 2A. Material extracted from 2×10^7 and 2×10^6 cells was analyzed in panels Surface and Surface/Cytoplasm or Nucleus, respectively. Immunoblotting was with the anti-nucleolin mAb D3. (B) The specific binding of HB-19/Btn to HUVECs. The binding of 1 µM HB-19/Btn was studied at 4 °C by FACScan analysis. To show the specificity of binding, the reaction was carried out in the absence or presence of 50 µM HB-19, F3, or 9Arg peptides. The ordinate gives the relative cell number, whereas the abscissa gives the relative fluorescence intensity. (C) HB-19 entry in HUVECs. Cells were incubated with 5 µM of HB-19/Btn (1 hour, 37°C) before fixation in PFA (for surface binding) or PFA-Triton (for entry), respectively. Cells were then successively incubated with rabbit anti-biotin antibodies and goat Texas Red-conjugated anti-rabbit IgG, and processed for confocal microscopy. The scans of cells toward the middle cell layer are presented (with the DAPI stained nuclei).

[3] = test system: nucleolin; details: cited from earlier work
Source text: HB-19 presents pentavalently the tripeptide Kψ(CH2N)PR in which the reduced peptide bond provides high stability against serum proteases (Figure 1). HB-19 forms a stable complex with the cell-surface expressed nucleolin and is internalized by an active process. This le ... || The interaction of HB-19 with surface nucleolin was investigated using human breast cancer MDA-MB-231 tumor cells and human umbilical vein endothelial cells (HUVECs). […] Similarly, HB-19/Btn binds and forms a stable complex with surface nucleolin in a dose-dependent manner in both types of cell ... || Previously, guanosine-rich phosphodiester oligonucleotides (referred to as GROs) and endostatin have been reported to exert antitumoral and antiangiogenic activity, respectively, through interaction with surface nucleolin [21], [41], [42]. […] At 20°C, GRO ... || (+ 1 further places)

[4] = test system: U87MG cells; assay: Colony formation in soft agar, U87MG; assay type: cell-based, human; details: 5 µM HB-19, U87MG
Description: Figure 4 HB-19 inhibits colony formation in soft agar by tumor cell lines. (A) MDA-MB-231 cells in culture medium were seeded in triplicate in the absence (histogram C) or presence of 0.1, 0.5 and 1 of µM HB-19, or 0.1 µM of the anti-nucleolin mAb MS-3 or control IgG, or 10 µM bisphosphonate (BisP). (B) Various tumor cell lines (as indicated) in culture medium were seeded in triplicate in the absence (histogram Control) or presence of 5 µM HB-19. After 10–21 days, colonies with diameters greater than 50 µm were scored as positive. Statistical significance: *0.01<p<[…], **p<0.01, ***p<0.001.
Carcinoma cells (2×10^4) were mixed in 0.35% top agar, diluted in complete medium (DMEM containing 10% FBS) in the absence or presence of HB-19, and plated onto 0.8% bottom agar into 12-well plates. Cells were treated twice a week during 10 to 21 days. Colonies with diameters greater than 50 µm were scored as positive using a phase contrast microscope equipped with a measuring grid at magnification 100× [45]. The number of colonies was determined by analyzing 5 fields/well from 3 wells and the test was repeated at least twice.

pseudo-tripeptide Lysψ(CH2N)-Pro-Arg coupled to a template (H2NLys-Lys-Lys-Gly-Pro-Lys-Glu-Lys-AhxCONH2) [HB-19, pseudopeptide presenting pentavalently the pseudo-tripeptide Lysψ(CH2N)-Pro-Arg coupled to a template]
relative percent inhibition of angiogenesis ([1]; 0.4 nmol HB-19 (10 µM, 40 µl)): 27% | relative percent inhibition of angiogenesis ([1]; 0.8 nmol HB-19 (20 µM, 40 µl)): 36% | relative percent inhibition of angiogenesis ([1]; 2 nmol HB-19 (50 µM, 40 µl)): 51% | blood vessel branching and development ([1]; HB-19 10, 20 and 50 µM): impaired significantly blood vessel branching and development in a dose-dependent manner | prevention of HB-19/Btn binding [2]: prevented by the excess HB-19 | binding site on nucleolin [3]: binds the C-terminal RGG domain of cell-surface expressed nucleolin | heparan sulfate proteoglycan requirement of binding to surface nucleolin [3]: endostatin but not HB-19 binding to surface nucleolin requires heparan sulfate proteoglycans | reversibility of binding to surface nucleolin ([3]; physiological conditions): bind surface nucleolin in an irreversible manner | colony formation [4]: reduced markedly
